Molecules are shown by their SMILES.

One assay deals with dephosphorylated BTK (Homo sapiens (Human), UniProt Q06187). The assay is described as follows: BTK Activity Inhibition Test (mobility shift assay). The assay is classed as biochemical. Conditions: 200 μM ATP, read-out: Inhibitory Activity on BTK. In outline:
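Biotinylated human BTK was dephosphorylated with λ phosphatase and assayed by mobility shift, with FITC-SRCtide as substrate in 20 mM HEPES pH 7.5, 0.01% Triton X-100 and 2 mM DTT. The substrate mix held 4 μM substrate, 20 mM MgCl2 and 200 μM ATP, and the enzyme solution held 0.46 nM BTK (stock levels, not final). After 2 h at room temperature, % inhibition was derived from P/(P+S) and IC50 by log-concentration regression.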

The target in another assay is BTK (Homo sapiens (Human), UniProt Q06187). The assay is described as follows: Intracellular BTK Auto-Phosphorylation Activity Inhibition Test in Ramos cells. The assay is classed as cell-based. Conditions: test compound 0.03 μM, anti-IgM stimulation, pY223, read-out: Inhibitory Activity on BTK-phosphorization. As for the experimental part:
Ramos cells (2G6.4C10, ATCC No. CRL-1923) were cultured in a T75 flask containing RPMI-1640 medium (GIBCO, # A10491-01) supplemented with 10% FBS (AusGene) and 1% penicillin-streptomycin (Nacalai Tesque, Inc.) (hereinafter referred to as growth medium) in a 5% CO2 incubator.
The cultured Ramos cells were diluted to a cell density of 7.5×10^6 cells/mL with a serum-free RPMI-1640 (hereinafter referred to as medium) and kept at 37° C. for 45 minutes. The cell suspension was dispensed in 1 mL aliquots into 2.0 mL tubes. A 0.03 mM solution of the test substance in DMSO was diluted with the medium to make a 0.09 μM test compound solution, 500 μL of which was then added to the tubes and the incubation was conducted at 37° C. for 1 hour in the presence of the test compound at a final concentration of 0.03 μM. Thereafter, the anti-IgM antibody (Invitrogen, H15100) which had been diluted with the medium was added at a final concentration of 10 μg/mL, and the incubation was conducted at 37° C. for 10 minutes.
To the pellets obtained by recovering the cells via centrifugation, 100 μL of a lysis buffer [RIPA Buffer(×1)(Cell Signaling Technology, Inc.) supplemented with 1% Phosphatase inhibitor Cacktail 3 (Sigma Corporation, No. P0044), 1% Phosphatase inhibitor Cacktail (Nacalai Tesque, Inc., No. 07575) and 1 mM phenylmethylsulfonyl fluoride (PMSF)] was added and stirred gently and then allowed to stand for 10 minutes. The supernatant was recovered by centrifugation (15,000 rpm, 15 minutes) and the protein level was quantified. The portion was mixed with the SDS-sample buffer, allowed to react for 5 minutes at 95° C. to denature the protein, thereby obtaining a sample solution. Each 5 μL of the sample solutions was applied to each well containing a 5 to 20% gradient acrylamide gel (Nacalai Tesque, Inc., No. 13064-04) and electrophoresis was conducted. Thereafter, iBlot gel transfer system (Life Technologies Corporation) was used to transfer the proteins in the gel onto a PVDF membrane.
The PVDF membrane after transfer was blocked with 2% ECL prime blocking Reagent (GE Healthcare) and thereafter the reaction was conducted overnight at 4° C. using anti-BTK mouse antibody (BD transduction laboratory, No. 611116) or anti-phosphorylated BTK rabbit antibody (pY223, EPITOMICS, No. 2207-1) as a primary antibody. The unreacted primary antibody was washed with a TBST buffer (10 mM Tris-HCl (pH 7.5), 150 mM NaCl, 0.1% Tween 20) and then the reaction was conducted for 1 hour at room temperature in a TBST buffer supplemented with 2% ECL prime blocking Reagent using HRP-labeled anti-mouse IgG horse antibody (Cell Signaling Technology, No. 7076) or anti-rabbit IgG goat antibody (Cell Signaling Technology, No. 7074) as a secondary antibody. After washing the unreacted secondary antibody with the TBST buffer, Chemi-Lumi One Super (Nacalai Tesque, Inc.) was used to conduct a reaction in accordance with the attached protocol, and then the respective bands as chemiluminescences were detected with a CCD camera (GE Healthcare ImageQuant LAS 500). […] Each phosphorylated BTK band was corrected based on the total BTK.
The intracellular BTK autophosphorylation inhibiting activity was indicated with the mark “***” when 90% or more, with the mark “**” when 70% or more and less than 90%, and with the mark “*” when 50% or more and less than 70%.

For another assay, the target named is wild type BTK [BTK(WT)] (Homo sapiens (Human), UniProt Q06187). The assay is described as follows: C481S Mutant BTK Inhibitory Activity Test, wild type BTK (mobility shift assay). The assay is classed as biochemical. The conditions noted are these: 120 μM ATP. As for the experimental part: (§1) The kinase activity was measured using QuickScout Screening Assist (trademark) MSA (commercially available kit manufactured by Carna Biosciences, Inc.) by mobility shift assay (MSA) method. The substrate of the kinase reaction was an FITC-labeled SRCtide peptide included in the kit. […] The 10 mM solution of the test compound in DMSO was further diluted with DMSO to 10 levels of the concentration (0.00003 mM, 0.0001 mM, 0.0003 mM, 0.001 mM, 0.003 mM, 0.01 mM, 0.03 mM, 0.1 mM, 0.3 mM, 1 mM), each of which was subjected to a 25-fold dilution with the assay buffer to obtain the drug solutions (4% DMSO solutions).
wild type BTK [BTK(WT)], sequence (Q06187 whole entry): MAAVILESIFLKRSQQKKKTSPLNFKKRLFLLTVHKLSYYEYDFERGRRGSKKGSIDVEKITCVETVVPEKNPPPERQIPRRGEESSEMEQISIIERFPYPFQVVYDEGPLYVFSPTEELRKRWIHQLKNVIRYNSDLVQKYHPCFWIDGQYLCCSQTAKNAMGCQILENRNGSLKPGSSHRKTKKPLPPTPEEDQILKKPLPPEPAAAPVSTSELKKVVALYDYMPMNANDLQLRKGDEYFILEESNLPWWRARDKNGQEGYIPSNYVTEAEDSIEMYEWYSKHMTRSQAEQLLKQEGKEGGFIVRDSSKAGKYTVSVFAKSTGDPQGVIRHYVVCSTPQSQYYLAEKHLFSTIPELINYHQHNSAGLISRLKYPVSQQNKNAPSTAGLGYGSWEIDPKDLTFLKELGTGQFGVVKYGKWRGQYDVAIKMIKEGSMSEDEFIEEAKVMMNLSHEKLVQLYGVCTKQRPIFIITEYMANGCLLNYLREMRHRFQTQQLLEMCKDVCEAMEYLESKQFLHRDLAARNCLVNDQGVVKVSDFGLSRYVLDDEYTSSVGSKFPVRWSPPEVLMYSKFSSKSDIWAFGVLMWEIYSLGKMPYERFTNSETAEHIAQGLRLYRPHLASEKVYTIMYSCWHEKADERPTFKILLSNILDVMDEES
(§2) 5 μL of the drug solution or a control solution (4% DMSO-assay buffer), 5 μL of the substrate mixture solution, and 10 μL of the enzyme solution were mixed in the wells of a polypropylene 384-well plate and allowed to react at room temperature for 1 hour, and then quenched by adding 60 μL of the termination buffer included in the kit. Subsequently, the quantities of the substrates (S) and the phosphorylated substrate (P) in the reaction solution were measured using LabChip EZ Reader II system (manufactured by Caliper Life Sciences) according to the protocol of the assay kit.
(§3) The heights of the peaks of the isolated substrate and the phosphorylated substrate were represented as S and P, respectively, and a blank which contained the assay buffer instead of the enzyme solution was also measured.
(§4) The inhibition rate (%) of the test compound was calculated according to the following equation; Inhibition rate (%)=(1−(C−A)/(B−A))×100 • wherein, A, B and C represent P/(P+S) of the blank well, P/(P+S) of the control well and P/(P+S) of the compound-containing well, respectively.
(§5) The IC50 value was calculated via a regression analysis of the inhibition rate (%) and the test compound concentration (logarithmic value).

Assay [1] concerns the target C481S mutant BTK [BTK(C481S)] (Homo sapiens (Human), UniProt Q06187, C481S). The assay is described as follows: C481S Mutant BTK Inhibitory Activity Test (mobility shift assay). The assay is classed as biochemical. As for the experimental part: as §1, §2, §3, §4, §5
The next assay has as its system OCI-Ly10 cells. The assay is described as follows: Proliferation-Inhibitory Test Against Diffuse Large-Cell B-Cell Lymphoma OCI-Ly10 Strain. The assay is classed as cell-based. The conditions noted are these: Homo sapiens, 96 hours, alamarBlue. In outline: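 Proliferation was read by alamarBlue after a 96-hour incubation. Final compound concentrations spanned 0.9 nM to 30000 nM with 0.3% DMSO. Cells were seeded at 20000 per well in IMDM containing 20% fetal bovine serum under 5% CO2.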
A general note: The colour change of resazurin is a common sign of viable cells or microbes.

BTK, sequence (Q06187 whole entry): as above
dephosphorylated BTK, sequence (Q06187 whole entry): as above
C481S mutant BTK [BTK(C481S)], sequence (Q06187 whole entry C481S): as the sequence (Q06187 whole entry) above, with C481S counted along it

As to `Nc1nc(-c2cccc(-n3ccc4cc(C5CC5)cc(F)c4c3=O)c2CO)c2cc(-c3ccccc3)[nH]c2n1` [Example 1, 2-[3-(2-amino-6-phenyl-7H-pyrrolo[2,3-d]pyrimidin-4-yl)-2-(hydroxymethyl)phenyl]-6-cyclopropyl-8-fluoroisoquinolin-1(2H)-one], the IC50 at dephosphorylated BTK is under 10 nM. Further, the inhibition at 0.03 µM on BTK was at least 90%.
Turning to `COc1ccc(-c2cc3c(-c4cccc(-n5ccc6cc(C7CC7)cc(F)c6c5=O)c4CO)nc(N)nc3[nH]2)cc1` [Example 16, 2-{3-[2-amino-6-(4-methoxyphenyl)-7H-pyrrolo[2,3-d]pyrimidin-4-yl]-2-(hydroxymethyl)phenyl}-6-cyclopropyl-8-fluoroisoquinolin-1(2H)-one], the IC50 on dephosphorylated BTK is under 10 nM. Besides, the inhibition at 0.03 µM at BTK was at least 90%.
`CS(=O)(=O)c1ccc(-c2cc3c(-c4cccc(-n5ccc6cc(C7CC7)cc(F)c6c5=O)c4CO)nc(N)nc3[nH]2)cc1` [Example 41, 2-(3-{2-amino-6-[4-(methylsulfonyl)phenyl]-7H-pyrrolo[2,3-d]pyrimidin-4-yl}-2-(hydroxymethyl)phenyl)-6-cyclopropyl-8-fluoroisoquinolin-1(2H)-one]: the IC50 at dephosphorylated BTK was under 10 nM; at wild type BTK [BTK(WT)] it was 0.73 nM; in assay [1] (C481S mutant BTK, 100 μM ATP) it was 1.03 nM; with OCI-Ly10 cells, 17 nM. Also, the C481S mutation-resistance in assay [1] (IC50[BTK(C481S)]/IC50[BTK(WT)]) was 1.4.
`Nc1nc(-c2cccc(-n3ccc4cc(C5CC5)cc(F)c4c3=O)c2CO)c2cc(-c3ccsc3)[nH]c2n1` [Example 32, 2-{3-[2-amino-6-(thiophen-3-yl)-7H-pyrrolo[2,3-d]pyrimidin-4-yl]-2-(hydroxymethyl)phenyl}-6-cyclopropyl-8-fluoroisoquinolin-1(2H)-one]: the IC50 on dephosphorylated BTK is under 10 nM; with OCI-Ly10 cells, 79 nM. On BTK, the inhibition at 0.03 µM was at least 90%.
On to `COc1cccc(-c2cc3c(-c4cccc(-n5ccc6cc(C7CC7)cc(F)c6c5=O)c4CO)nc(N)nc3[nH]2)c1` [Example 15, 2-{3-[2-amino-6-(3-methoxyphenyl)-7H-pyrrolo[2,3-d]pyrimidin-4-yl]-2-(hydroxymethyl)phenyl}-6-cyclopropyl-8-fluoroisoquinolin-1(2H)-one], for which, on dephosphorylated BTK, the IC50 is under 10 nM. In addition, the inhibition at 0.03 µM at BTK is at least 90%.
For the compound `COc1ccccc1-c1cc2c(-c3cccc(-n4ccc5cc(C6CC6)cc(F)c5c4=O)c3CO)nc(N)nc2[nH]1` [Example 14, 2-{3-[2-amino-6-(2-methoxyphenyl)-7H-pyrrolo[2,3-d]pyrimidin-4-yl]-2-(hydroxymethyl)phenyl}-6-cyclopropyl-8-fluoroisoquinolin-1(2H)-one], at dephosphorylated BTK, the IC50 is under 10 nM. Further, at BTK, the inhibition at 0.03 µM lay within 70 to 90%.
Regarding `Nc1nc(-c2cccc(-n3ccc4cc(C5CC5)cc(F)c4c3=O)c2CO)c2cc(-c3ccc(CN4CCOCC4)cc3)[nH]c2n1` [Example 26, 2-(3-{2-amino-6-[4-(morpholinomethyl)phenyl]-7H-pyrrolo[2,3-d]pyrimidin-4-yl}-2-(hydroxymethyl)phenyl)-6-cyclopropyl-8-fluoroisoquinolin-1(2H)-one], the results for the IC50 at dephosphorylated BTK and in the assay with OCI-Ly10 cells were under 10 nM and 75 nM, respectively. For the same compound, at BTK, the inhibition at 0.03 µM is at least 90%.
Take `COc1cccc(-c2nc3c(-c4cccc(-n5ccc6cc(C7CC7)cc(F)c6c5=O)c4CO)nc(N)nc3[nH]2)c1` [Example 18, 2-{3-[2-amino-8-(3-methoxyphenyl)-9H-purin-6-yl]-2-(hydroxymethyl)phenyl}-6-cyclopropyl-8-fluoroisoquinolin-1(2H)-one]: the IC50 on dephosphorylated BTK was under 10 nM. Also, the inhibition at 0.03 µM on BTK is at least 90%.
For the compound `N#Cc1ccc(-c2cc3c(-c4cccc(-n5ccc6cc(C7CC7)cc(F)c6c5=O)c4CO)nc(N)nc3[nH]2)cc1` [Example 27, 4-{2-amino-4-[3-(6-cyclopropyl-8-fluoro-1-oxoisoquinolin-2(1H)-yl)-2-(hydroxymethyl)phenyl]-7H-pyrrolo[2,3-d]pyrimidin-6-yl}benzonitrile], the figures for the IC50 on dephosphorylated BTK and in the assay with OCI-Ly10 cells were under 10 nM and 182 nM, respectively. The inhibition at 0.03 µM on BTK is at least 90%.
For `Nc1nc(-c2cccc(-n3ccc4cc(C5CC5)cc(F)c4c3=O)c2CO)c2nc(-c3cccnc3)[nH]c2n1` [Example 25, 2-{3-[2-amino-8-(pyridin-3-yl)-9H-purin-6-yl]-2-(hydroxymethyl)phenyl]-6-cyclopropyl-8-fluoroisoquinolin-1(2H)-one], the IC50 on dephosphorylated BTK is under 10 nM. For the same compound, the inhibition at 0.03 µM on BTK is at least 90%.
Consider `Nc1nc(-c2cccc(-n3ccc4cc(C5CC5)cc(F)c4c3=O)c2CO)c2cc(-c3cccnc3)[nH]c2n1` [Example 17, 2-{3-[2-amino-6-(pyridin-3-yl)-7H-pyrrolo[2,3-d]pyrimidin-4-yl]-2-(hydroxymethyl)phenyl}-6-cyclopropyl-8-fluoroisoquinolin-1(2H)-one], for which the IC50 on dephosphorylated BTK is under 10 nM. Moreover, the inhibition at 0.03 µM at BTK is at least 90%.
Taken in the same sequence, the figures for `Nc1nc(-c2cccc(-n3ccc4cc(C5CC5)cc(F)c4c3=O)c2CO)c2cn[nH]c2n1` [Example 5, 2-[3-(6-amino-1H-pyrazolo[3,4-d]pyrimidin-4-yl)-2-(hydroxymethyl)phenyl]-6-cyclopropyl-8-fluoroisoquinolin-1(2H)-one] were under 10 nM and at least 90%.
In the same order, the values of `Nc1nc(-c2cccc(-n3ccc4cc(C5CC5)cc(F)c4c3=O)c2CO)c2c(-c3ccccc3)n[nH]c2n1` [Example 3, 2-[3-(6-amino-3-phenyl-1H-pyrazolo[3,4-d]pyrimidin-4-yl)-2-(hydroxymethyl)phenyl]-6-cyclopropyl-8-fluoroisoquinolin-1(2H)-one] are under 10 nM and at least 90%.

For the origin of these results see patent US10793575B2, “Oxoisoquinoline derivatives” (CARNA BIOSCIENCES, INC., priority 2016, dated 2020).
